Results: patent publication US4355024A, “Method and feed for stimulating the growth of animals” (priority 1979, dated 1982)
“And” between values parts separate entries of the source, which are not always exact repeats. Identical values can stand only once. Peptide text beside a SMILES is read from it.

Assay: Growth stimulation in rats fed chow containing the additive (body weight over 15 days)
Assay type: in vivo, Wistar strain rats
Conditions: 0.25% wt/wt in feed; for Mean Body Weight, experimental animals: 10 male Wistar rats; for Body Weight of Animals (individual experimental animals): male Wistar rats
Method: Two groups of 10 Wistar strain rats each, all males to avoid estrus cyclical changes in the 15-day experimental period, were kept in two separate stock cages in an animal room maintained at 25° C. with an automatic 12-hour light-12-hour-dark cycle. Dry standard laboratory chow pellets were made up into a wet mash by adding a 1:1 mixture of water (wt/wt), which then was compressed by hand into balls weighing approximately 20 grams each. To each 20 g ball made for the experimental group, 50 mg of the methyl ester of L-aspartyl-L-phenylalanine was added, which represents a 0.25% wt/wt admixture. More than adequate food was made freely available to the animals at all times and drinking water was made available ad libitum. All individual rats were numbered by a colored stripe system marked on the tail. The animals were weighed on a balance to an accuracy of 1 gram at the start of the experiment (3 days after arrival in the cages to allow them to adjust to their new environment). They were then weighed again after 2, 4, 6, 8, 10, 12 and 14 days from the start of the new diet (i.e., days 3, 5, 7, 9, 11, 13 and 15 of the experiment). The rates of growth of the control and experimental animals is summarized in tabular form below: […]

[1] = Day 1 (start of diet, baseline)

Compound: COC(=O)[C@H](Cc1ccccc1)NC(=O)[C@@H](N)CC(=O)O [methyl ester of L-aspartyl-L-phenylalanine] (H-Asp-Phe-OMe)
- Mean Body Weight, experimental animals [1]: 102.6 grams
- Mean Body Weight, experimental animals (Day 3): 117.8 grams
- Mean Body Weight, experimental animals (Day 5): 133.4 grams
- Mean Body Weight, experimental animals (Day 7): 149.8 grams
- Mean Body Weight, experimental animals (Day 9): 166.8 grams
- Mean Body Weight, experimental animals (Day 11): 183.1 grams
- Mean Body Weight, experimental animals (Day 13): 199.9 grams
- Mean Body Weight, experimental animals (Day 15): 215.9 grams
- Body Weight of Animals (individual experimental animals) [1]: 94 grams and 105 grams and 96 grams and 110 grams and 102 grams and 98 grams and 104 grams and 95 grams and 114 grams and 108 grams
- Body Weight of Animals (individual experimental animals) (Day 3): 112 grams and 119 grams and 110 grams and 128 grams and 120 grams and 109 grams and 129 grams
- Body Weight of Animals (individual experimental animals) (Day 5): 130 grams and 135 grams and 126 grams and 145 grams and 134 grams and 127 grams and 124 grams
- Body Weight of Animals (individual experimental animals) (Day 7): 148 grams and 153 grams and 143 grams and 161 grams and 150 grams and 149 grams and 140 grams and 162 grams
- Body Weight of Animals (individual experimental animals) (Day 9): 169 grams and 160 grams and 161 grams and 178 grams and 166 grams and 158 grams and 165 grams and 155 grams and 180 grams
- Body Weight of Animals (individual experimental animals) (Day 11): 184 grams and 188 grams and 180 grams and 193 grams and 183 grams and 172 grams and 181 grams and 169 grams and 197 grams
- Body Weight of Animals (individual experimental animals) (Day 13): 203 grams and 204 grams and 195 grams and 209 grams and 202 grams and 186 grams and 200 grams and 184 grams and 213 grams
- Body Weight of Animals (individual experimental animals) (Day 15): 220 grams and 223 grams and 211 grams and 226 grams and 217 grams and 201 grams and 215 grams and 198 grams and 227 grams and 221 grams
- mean body weight of the experimental group higher than the mean body weight of the control group (rats, after 2 weeks): about 34%
- increase in body weight versus control (in words) (rats, beginning with the seventh day of the experiment): significant increases in body weight
